The text below walks through data of patent US9884832B2 (priority 2011, dated 2018).

As a reminder, the inhibition is the drop in the measured response relative to a control, in per cent.

In one experiment the target is AM2 S31 (wild-type serine at position 31 in the M2 protein), influenza virus A/Udorn/72 (Influenza A virus, UniProt P0DOF5). In words: cell-based. The conditions noted are these: 100 uM; Xenopus oocytes; activity range class; read-out: S31 OOcyte Inhibition at 100 uM (%).
Sequence of AM2 S31 (wild-type serine at position 31 in the M2 protein), influenza virus A/Udorn/72 (P0DOF5 whole entry, looked up): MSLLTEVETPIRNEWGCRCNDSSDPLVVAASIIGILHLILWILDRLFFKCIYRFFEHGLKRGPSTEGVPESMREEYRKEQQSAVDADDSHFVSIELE
As to `c1coc(-c2ncc(CNC34CC5CC(CC(C5)C3)C4)cn2)c1` [Example 62a, N-((2-(furan-2-yl)pyrimidin-5-yl)methyl)adamantan-1-amine], the inhibition at 100 µM fell in the range of 0 to 30%.

With `c1ccc(-c2ncc(CNC34CC5CC(CC(C5)C3)C4)cn2)cc1` [Example 63a, N-((2-phenylpyrimidin-5-yl)methyl)adamantan-1-amine], the inhibition at 100 µM lay in the range of 0 to 30%.

For the compound `c1ccc(-c2ncc(CNC34CC5CC(CC(C5)C3)C4)cn2)nc1` [Example 64a, N-((2-(pyridin-2-yl)pyrimidin-5-yl)methyl)adamantan-1-amine], the inhibition at 100 µM was in the range of 0 to 30%.

Regarding `Oc1cccc2ccc(CNC34CC5CC(CC(C5)C3)C4)nc12` [Example 65a, 2-((adamantan-1-ylamino)methyl)quinolin-8-ol], the inhibition at 100 µM was 31 to 95%.

On to `c1cc(CNC23CC4CC(CC(C4)C2)C3)co1` [Example 66a, Adamantan-1-yl-furan-3-ylmethyl-amine], for which the inhibition at 100 µM was 31 to 95%.

Regarding `Cc1ccc(CNC23CC4CC(CC(C4)C2)C3)o1` [Example 67a], the inhibition at 100 µM fell in the range of 31 to 95%.

As to `c1cc(CNC23CC4CC(CC(C4)C2)C3)cs1` [Example 68a, Adamantan-1-yl-thiophen-3-ylmethyl-amine], the inhibition at 100 µM lay within 31 to 95%.

Still in this experiment, the particulars now being: Table 1; 100 uM; Xenopus oocytes, pH 5.5, -20 mV; read-out: S31 OOcyte Inhibition at 100 uM (%).
Consider `COc1ccc(F)c(CNC23CC4CC(CC(C4)C2)C3)c1` [Example 63, Adamantan-1-yl-(2-fluoro-5-methoxy-benzyl)-amine], for which the inhibition at 100 µM lay in the range of 31 to 95%.

In the case of `Oc1cccc(CNC23CC4CC(CC(C4)C2)C3)c1O` [Example 64, 3-(Adamantan-1-ylaminomethyl)-benzene-1,2-diol], the inhibition at 100 µM lay in the range of 31 to 95%.

For `Oc1ccc(CNC23CC4CC(CC(C4)C2)C3)c(O)c1O` [Example 65, 4-(Adamantan-1-ylaminomethyl)-benzene-1,2,3-triol], the inhibition at 100 µM is 0 to 30%.

`COc1cc(O)cc(OC)c1CNC12CC3CC(CC(C3)C1)C2` [Example 66, 4-(Adamantan-1-ylaminomethyl)-3,5-dimethoxy-phenol]: the inhibition at 100 µM was 31 to 95%.

Turning to `COc1cc(F)c(CNC23CC4CC(CC(C4)C2)C3)c(F)c1` [Example 67, Adamantan-1-yl-(2,6-difluoro-4-methoxy-benzyl)-amine], the inhibition at 100 µM was in the range of 31 to 95%.

In the case of `Oc1c(F)cc(CNC23CC4CC(CC(C4)C2)C3)cc1Cl` [Example 68, 4-(Adamantan-1-ylaminomethyl)-2-chloro-6-fluoro-phenol], the inhibition at 100 µM was in the range of 31 to 95%.

The same experiment, now with this note: Table 3; 100 uM; Xenopus oocytes, pH 5.5, -20 mV; read-out: S31 OOcyte Inhibition at 100 uM (%).
For `CCCSc1ncc(CNC23CC4CC(CC(C4)C2)C3)cn1` [Example 62b, N-((2-propylthiopyrimidin-5-yl)methyl)adamantan-1-amine], the inhibition at 100 µM lay within 0 to 30%.

For `Cc1cccc(-c2ncc(CNC34CC5CC(CC(C5)C3)C4)cn2)c1` [Example 63b, N-((2-mtolylpyrimidin-5-yl)methyl)adamantan-1-amine], the inhibition at 100 µM fell in the range of 0 to 30%.

In the case of `COc1ncc(CNC23CC4CC(CC(C4)C2)C3)c(OC)n1` [Example 64b, N-((2,4-dimethoxypyrimidin-5-yl)methyl)adamantan-1-amine], the inhibition at 100 µM is 0 to 30%.

As to `c1nc(CNC23CC4CC(CC(C4)C2)C3)sc1C1CC1` [Example 65b, Adamantan-1-yl-(5-cyclopropyl-thiazol-2-ylmethyl)-amine], the inhibition at 100 µM lay in the range of 0 to 30%.

`CSc1ccccc1-c1ccc(CNC23CC4CC(CC(C4)C2)C3)cc1` [Example 66b, Adamantan-1-yl-(2′-methylsulfanyl-biphenyl-4-ylmethyl)-amine]: the inhibition at 100 µM lay within 0 to 30%.

Consider `CSc1ccccc1-c1ccc(CNC23CC4CC(CC(C4)C2)C3)nc1` [Example 67b, Adamantan-1-yl-[5-(2-methylsulfanyl-phenyl)-pyridin-2-ylmethyl]-amine], for which the inhibition at 100 µM fell in the range of 31 to 95%.

`Cc1csc(CNC23CC4CC(CC(C4)C2)C3)n1` [Example 68b, Adamantan-1-yl-(4-methyl-thiazol-2-ylmethyl)-amine]: the inhibition at 100 µM was in the range of 31 to 95%.
